Consider 14 molecules from patent publication US6743795B1, “3-nitropyridine derivaives and the pharmaceutical compositions containing said derivatives” (Dong Wha Pharm. Ind. Co. Ltd., priority 1999, dated 2004).

In one test the target is T1, HBV polymerase (Hepatitis B virus genotype A2 subtype adw2, UniProt P03159).
T1 construct: made in house; host or cells: E. coli
Put plainly: In vitro reverse transcription activity of HBV polymerase (ELISA-type, DIG/biotin nucleotides). It is filed as biochemical. The note with it: for inhibition at 0.01 µg/mL / inhibition at 0.1 µg/mL / inhibition at 1 µg/mL: read-out: Inhibition activity on HBV-RT (%). Here is the method:
<Experiment 1> Inhibitory Effect on the In Vitro Activities of HBV Polymerase in Reverse Transcription
The following in vitro experiment was performed to determine the effect of the compounds of formula 1 on the activity of HBV polymerase during reverse transcription.
The present inventors submitted application for a patent concerning HBV polymerase genetically expressed in and separated from E.coli, the process of its preparation, and the method to measure the enzyme activities (KR 94-3918, KR 96-33998). In the present experiments HBV polymerase was used which had been expressed in E. coli as stated above.
The method used in the present invention to measure in vitro reverse transcribing activities of HBV polymerase is as follows. Basic principles are the same as for ELISA. Nucleotides with biotin or digoxigenin group attached are included as substrates and anti-DIG antibodies attached to peroxidase enzyme recognize the polymerized substrates.
To the wells coated with streptavidin, 20 μl of HBV polymerase, 20 μl of reaction mixture (10 μM each of DIG-UTP and Biotin-UTP, 46 mM Tris-HCl, 266 mM KCl, 27.5 mM MgCl2, 9.2 mM DTT substrate/primer nybrid), and 20 μl of test compound (added to 1, 0.1, and 0.01 μg/ml) were added and allowed to react at 22° C. for 15 hrs. During this reaction, HBV polymerase catalyzes DNA synthesis and digoxigenin and biotin attached to nucleotides form bonds with streptavidin coated on the bottom of wells. When the reaction was done, each well was washed with 250 μl of cleaning buffer (pH 7.0) for 30 seconds, which was repeated five times to remove remaining impurities. 200 μl of anti-DIG-POD antibody was added to each well and allowed to react for 1 hr at 37° C., and the wells were washed with cleaning buffer to remove impurities. 200 μl each of ABTS™, a substrate of peroxidase, was then added and allowed to react at room temperature for 30 min. Absorbance was measured at 405 nm using ELISA reader.
The percentage of reduction in HBV polymerase activities for reverse transcription was calculated using the group without test compound as a control and the results are shown in Table 3.
On the technique in general: In an ELISA, binding on a coated surface is turned into a signal by an enzyme label.

The next test has as its system HBV. The test is described as follows: Proliferation of HBV in HBV producing cell line HepG 2.2.15 (competitive PCR of culture supernatant). It is filed as cell-based, Hepatitis B virus. Particulars: HepG 2.2.15, one week; for inhibition at 0.01 µg/mL / inhibition at 0.1 µg/mL / inhibition at 1 µg/mL: Hepatitis B virus, HepG2.2.15, 168 h, read-out: Inhibitory effect on the HBV proliferation: Inhibition activity on HBV-RT (%). As for the experimental part:
<Experiment 2> Inhibitory Effect on the Proliferation of HBV in HBV Producing Cell Line
The following experiment was performed to determine inhibitory effects of compounds of formula 1 on the proliferation of HBV producing cell line.
To test for antiviral effect, replication and proliferation of HBV were measured in HepG 2.2.15, a human liver cancer cell line.
The cell concentration was adjusted to 1×10^5 cells/ml and 1 ml was added to each well of a 24-well cell culture plate, which was then kept in a culture box for 3-4 days at 37° C. under 5% CO2 until cells grew sufficiently, changing culture medium everyday. When the cells matured sufficiently, the test compounds were added to the final concentrations of 0.01, 0.1, and 1 μg/ml. One week after the addition of test compounds, the culture solution was centrifuged at 5,000 rpm for 10 min. 25 μl of supernatant was transferred to a new tube and 5 μl of lysis solution [0.54N NaOH, 0.06% NP40] was added to each tube. After keeping the tube at 37° C. for 1 hr, 30 μl of neutralizing solution [0.09N HCl 0.1MTris-HCl, pH7.4] was added as a reaction solution for competitive polymerase chain reaction (PCR).
PCR was performed using genetic sequence of HBV core protein as a matrix. PCR reaction was carried out by adding 1 unit of Taq polymerase enzyme to 25 pmol of each primer, 250 μM dNTP, 5 μl of PCR reaction solution [0.54N NaOH, 0. 06% NP40, 0.09N HCl, 0.1M Tris-HCl, pH 7.4].
DNA polymerized by PCR was electrophoresed on Agarose gel and quantitatively analyzed using an image analyzer (Gel Doc 1000, Bio-Rad) in order to evaluate the effect of compounds of the present invention on the reduction of HBV proliferation.
3TC (lamivudine) was used as a positive control at the same concentrations as those of the test compounds. The percentage of reduction in HBV proliferation was calculated using the group without test compound as a control and the results are represented in Table 4.

In test [1] the target is T2, HIV reverse transcriptase (Human immunodeficiency virus type 1 group M subtype B, UniProt P03366).
T2 construct: purchased Boehringer Mannheim
The test is described as follows: In vitro HIV reverse transcriptase activity (non-radioactive RT assay kit). In kind it is biochemical. As for the experimental part:
<Experiment 3> Inhibitory Effect on the In Vitro HIV Enzyme Activities in Reverse Transcription
The following in vitro experiments were done to determine the effect of compounds of formula 1 on the reduction of HIV enzyme activities in reverse transcription.
Non-radioactive reverse transcriptase assay kit (Boehringer Mannheim) was used in the measurement of in vitro transcriptase activities. 20 μl (40 ng) of HIV transcriptase and 20 μl of reaction mixture containing matrix-primer hybrid poly(A)oligo(dT)15, DIG(digoxigenin)-dUTP, biotin-dUTP, and TTP were added to wells coated with streptavidin. Test compounds were also added at the final concentrations of 0.1 and 1 μg/ml and allowed to react at 37° C. for 1 hr. At this time, DNA is formed from RNA by the action of HIV reverse transcriptase, forming bonds with streptavidin coated on the bottom of wells because of digoxigenin and biotin moieties attached to nucleotides.
When the reaction was completed, each well was washed with 250 μl of cleaning buffer (pH7.0) for 30sec. five times to remove remaining impurities. 200 μl of anti-DIG-POD […] was added to each well, allowed to react at 37° C. for 1 hr and washed as above to remove impurities. 200 μl of ABTS™, a substrate for peroxidase, was added to each well and allowed to react at room temperature for 30 min. Absorbance at 405 nm was then read for each solution using ELISA reader and used for quantitative determination of inhibitory effect on the HIV transcriptase activities. The percentage of reduction in the activities of HIV reverse transcriptase was calculated using the group without test compound as control and the results are represented in Table 5.

T1 sequence (P03159 whole entry): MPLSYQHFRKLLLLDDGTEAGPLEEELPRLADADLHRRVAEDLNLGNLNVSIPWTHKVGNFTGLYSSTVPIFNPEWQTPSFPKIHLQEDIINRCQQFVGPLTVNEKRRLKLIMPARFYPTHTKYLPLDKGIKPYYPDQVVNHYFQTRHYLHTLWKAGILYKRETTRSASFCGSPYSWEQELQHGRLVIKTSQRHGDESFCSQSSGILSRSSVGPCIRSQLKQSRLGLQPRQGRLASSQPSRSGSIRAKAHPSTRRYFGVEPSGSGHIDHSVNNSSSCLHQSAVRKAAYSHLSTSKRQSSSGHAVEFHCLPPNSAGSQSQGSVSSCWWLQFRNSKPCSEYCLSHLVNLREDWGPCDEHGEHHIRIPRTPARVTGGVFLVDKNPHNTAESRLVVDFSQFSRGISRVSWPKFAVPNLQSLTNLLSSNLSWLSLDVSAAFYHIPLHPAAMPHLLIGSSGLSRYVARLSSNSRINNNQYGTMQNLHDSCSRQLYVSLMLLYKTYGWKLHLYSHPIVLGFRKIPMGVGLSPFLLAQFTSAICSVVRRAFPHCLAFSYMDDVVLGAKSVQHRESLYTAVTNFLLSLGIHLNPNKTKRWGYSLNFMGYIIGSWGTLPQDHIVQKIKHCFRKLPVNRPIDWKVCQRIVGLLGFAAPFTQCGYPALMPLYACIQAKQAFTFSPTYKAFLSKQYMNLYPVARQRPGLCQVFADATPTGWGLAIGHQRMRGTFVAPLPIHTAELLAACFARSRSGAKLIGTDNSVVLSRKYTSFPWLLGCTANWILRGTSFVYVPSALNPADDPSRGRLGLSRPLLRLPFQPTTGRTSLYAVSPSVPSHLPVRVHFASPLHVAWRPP

In the case of `Nc1ccc([N+](=O)[O-])c(Nc2ccc3[nH]ncc3c2)n1` [Example 9, 6-amino-2-(1H-5-indazolylamino)-3-nitropyridine], the inhibition at 0.01 µg/mL at HBV polymerase (0.01 μg/ml test compound) was 40%. Besides, the inhibition at 0.1 µg/mL on HBV polymerase (0.1 μg/ml test compound) amounted to 59%. Moreover, the inhibition at 1 µg/mL on HBV polymerase (1 μg/ml test compound) turned out to be 80%.

As to `O=[N+]([O-])c1ccc(NCc2cccnc2)nc1Nc1ccc2[nH]ncc2c1` [Example 19, 2-(1H-5-indazolylamino)-3-nitro-6-(3-pyridyl)methylaminopyridine], the inhibition at 0.01 µg/mL on HBV polymerase (0.01 μg/ml test compound) turned out to be 42%; with HBV (0.01 μg/ml), 30%. Further, the results for the inhibition at 0.1 µg/mL on HBV polymerase (0.1 μg/ml test compound) and with HBV (0.1 μg/ml) were 58% and 51%, respectively. Besides, the inhibition at 1 µg/mL worked out at 91% on HBV polymerase (1 μg/ml test compound) and 85% in the test on HBV (1 μg/ml).

On to `C[C@@H](CCO)Nc1ccc([N+](=O)[O-])c(Nc2ccc3cn[nH]c3c2)n1` [Example 13, 6-[(1S)-1-(hydroxyethyl)ethylamino]-2-(1H-6-indazolylamino)-3-nitropyridine], for which the inhibition at 0.01 µg/mL on HBV polymerase (0.01 μg/ml test compound) came to 10%. Also, the inhibition at 0.1 µg/mL on HBV polymerase (0.1 μg/ml test compound) amounted to 35%. Moreover, the inhibition at 1 µg/mL on HBV polymerase (1 μg/ml test compound) is 66%.

With `CNc1ccc([N+](=O)[O-])c(Nc2ccc3[nH]ncc3c2)n1` [Example 3, 2-(1H-5-indazolylamino)-6-methyl amino-3-nitropyridine], the “Inhibition activity on HBV-RT (%)” value at HBV polymerase (0.01 μg/ml test compound) is 20%; at HBV polymerase (0.1 μg/ml test compound), 47%; at HBV polymerase (1 μg/ml test compound), 58%. Besides, the “Inhibitory effect on the HBV proliferation: Inhibition activity on HBV-RT (%)” value in the test with HBV (0.1 μg/ml) was 35%; in the test on HBV (1 μg/ml) it was 53%.

For `O=[N+]([O-])c1ccc(N2CCN(CCO)CC2)nc1Nc1ccc2cn[nH]c2c1` [Example 27, 6-[4-(2-hydroxyethyl)-1-piperazinyl]-2-(1H-6-indazolylamino)-3-nitropyridine], the inhibition at 0.01 µg/mL at HBV polymerase (0.01 μg/ml test compound) was 15%. At HBV polymerase (0.1 μg/ml test compound), the inhibition at 0.1 µg/mL was 38%. In addition, on HBV polymerase (1 μg/ml test compound), the inhibition at 1 µg/mL was 60%. Moreover, the “Inhibitory effect on the activities of HIV reverse transcriptase: Inhibition activity on HIV-RT (%)” value in test [1] (0.1 μg/ml test compound) worked out at 45%; in test [1] (1 μg/ml test compound) it was 81%.

Turning to `CN1CCN(c2ccc([N+](=O)[O-])c(Nc3ccc4[nH]ncc4c3)n2)CC1` [Example 25, 2-(1H-5-indazolylamino)-6-(4-methyl-1-piperazinyl)-3-nitropyridine], the inhibition at 0.01 µg/mL came out at 35% on HBV polymerase (0.01 μg/ml test compound) and 25% in the test with HBV (0.01 μg/ml). Further, the inhibition at 0.1 µg/mL at HBV polymerase (0.1 μg/ml test compound) amounted to 54%; in the test with HBV (0.1 μg/ml), 46%. Moreover, the figures for the inhibition at 1 µg/mL at HBV polymerase (1 μg/ml test compound) and in the test on HBV (1 μg/ml) were 88% and 83%, respectively.

`COCC(C)Nc1ccc([N+](=O)[O-])c(Nc2ccc3[nH]ncc3c2)n1` (stereo not shown) [Example 15, 2-(1H-5-indazolylamino)-6-(2-methoxy-1-methyl)ethylamino-3-nitropyridine]: the entries for the “Inhibition activity on HBV-RT (%)” value at HBV polymerase (0.01 μg/ml test compound), on HBV polymerase (0.1 μg/ml test compound) and on HBV polymerase (1 μg/ml test compound) were 47%, 68% and 97%, respectively. In addition, the figures for the “Inhibitory effect on the HBV proliferation: Inhibition activity on HBV-RT (%)” value in the test on HBV (0.01 μg/ml), in the test with HBV (0.1 μg/ml) and in the test with HBV (1 μg/ml) were 36%, 60% and 95%, respectively.

Take `CN1CCN(c2ccc([N+](=O)[O-])c(Nc3ccc4cn[nH]c4c3)n2)CC1` [Example 26, 2-(1H-6-indazolylamino)-6-(4-methyl-1-piperazinyl)-3-nitropyridine]: at HBV polymerase (0.01 μg/ml test compound), the inhibition at 0.01 µg/mL was 18%. The inhibition at 0.1 µg/mL on HBV polymerase (0.1 μg/ml test compound) is 40%. The inhibition at 1 µg/mL at HBV polymerase (1 μg/ml test compound) worked out at 63%.

For `O=[N+]([O-])c1ccc(N2CCC(O)CC2)nc1Nc1ccc2[nH]ncc2c1` [Example 28, 6-(4-hydroxy-1-piperidinyl)-2-(1H-5-indazolylamino)-3-nitropyridine], on HBV polymerase (0.01 μg/ml test compound), the inhibition at 0.01 µg/mL was 20%. Further, the inhibition at 0.1 µg/mL on HBV polymerase (0.1 μg/ml test compound) turned out to be 34%. Further, at HBV polymerase (1 μg/ml test compound), the inhibition at 1 µg/mL was 55%.

As to `CN1CCN(Nc2ccc([N+](=O)[O-])c(Nc3ccc4[nH]ncc4c3)n2)CC1` [Example 17, 2-(1H-5-indazolylamino)-6-(4-methyl-1-piperazinyl)amino-3-nitropyridine], the inhibition at 0.01 µg/mL at HBV polymerase (0.01 μg/ml test compound) was 41%. The inhibition at 0.1 µg/mL on HBV polymerase (0.1 μg/ml test compound) was 52%. The inhibition at 1 µg/mL on HBV polymerase (1 μg/ml test compound) was determined as 75%.

Take `O=[N+]([O-])c1ccc(NC2CC2)nc1Nc1ccc2[nH]ncc2c1` [Example 8, 6-cyclopropylamino-2-(1H-5-indazolylamino)-3-nitropyridine]: the inhibition at 0.01 µg/mL on HBV polymerase (0.01 μg/ml test compound) was 38%; in the test on HBV (0.01 μg/ml), 25%. The inhibition at 0.1 µg/mL on HBV polymerase (0.1 μg/ml test compound) was found to be 52%; with HBV (0.1 μg/ml), 46%. Besides, the inhibition at 1 µg/mL on HBV polymerase (1 μg/ml test compound) was determined as 72%; in the test on HBV (1 μg/ml), 65%.

With “6-(2-hydroxyethyl)methylamino-2-(1H-5-indazolylamino)-3-nitropyridine [Example 10]”, the “Inhibition activity on HBV-RT (%)” value at HBV polymerase (0.01 μg/ml test compound) is 50%; on HBV polymerase (0.1 μg/ml test compound), 58%; on HBV polymerase (1 μg/ml test compound), 78%.

Turning to `O=[N+]([O-])c1ccc(N2CCC(O)CC2)nc1Nc1ccc2cn[nH]c2c1` [Example 29, 6-(4-hydroxy-1-piperidinyl)-2-(1H-6-indazolylamino)-3-nitropyridine], the inhibition at 0.01 µg/mL at HBV polymerase (0.01 μg/ml test compound) was 10%. Also, the inhibition at 0.1 µg/mL at HBV polymerase (0.1 μg/ml test compound) is 35%. Moreover, the inhibition at 1 µg/mL on HBV polymerase (1 μg/ml test compound) is 52%.

Regarding `Nc1ccn([C@@H]2CS[C@H](CO)O2)c(=O)n1` [Example 3TC, lamivudine, reference compound], the inhibition at 0.01 µg/mL in the test with HBV (0.01 μg/ml) worked out at 48%. Besides, the inhibition at 0.1 µg/mL in the test with HBV (0.1 μg/ml) was determined as 80%. Also, in the test with HBV (1 μg/ml), the inhibition at 1 µg/mL is 99%.
